According to patent US20260258084A1, “New Peptides as Selective IL-23 Receptor Antagonists” (Sanofi, priority 2022, published 2026):
Values after ≈ are worked out from the molar mass of the structure shown. Read-outs that look alike come from different tables or passages of the source. Starred links: 1 amine or outer side, 2 acyl side, 3 side chain; linkers in the order of their positions; H or OH if unused. Positions of bridges follow the written chain, without caps; N, C: chain ends. Non-standard residues stand in square brackets, D forms with d. Residues, ends and D or L forms follow the SMILES beside them. *: point of attachment. X3 = CN(CCCCC(=O)N[C@@H](CS[*:2])C(=O)[*:1])[*:3]; Trp(7-Me) = Cc1cccc2c(C[C@H](N)C(=O)O)c[nH]c12; X1 = O=C(CCCCN[*:3])N[C@@H](CS[*:2])C(=O)[*:1]; αMeLys(Me2) = CN(C)CCCC[C@](C)(N)C(=O)O; X2 = CN(C)[C@@H](CCCCN[*:1])C(=O)[*:2]; 2Nal = N[C@@H](Cc1ccc2ccccc2c1)C(=O)O; AEF = NCCOc1ccc(C[C@H](N)C(=O)O)cc1; 3Pal = N[C@@H](Cc1cccnc1)C(=O)O; αMeL = CC(C)C[C@](C)(N)C(=O)O; Suc = O=C(CCC(=O)[*:2])[*:1]; Me2NCH2CH2 = CN(C)CC*; Aib = CC(C)(N)C(=O)O; Ava = NCCCCC(=O)O; Sar = CNCC(=O)O

Columns and labels:
[1] = Chemical stability assessment of peptides (relative purity loss); type: physicochemical; conditions: 24 hours at 37° C.; for Chemical stability (relative purity loss) Buffer pH 1.2: 50 mM HCl pH 1.2 + acetonitrile (1:1); for Chemical stability (relative purity loss) Buffer pH 6.5: 50 mM phosphate buffer pH 6.5 + acetonitrile (1:1); for Chemical stability (relative purity loss) Buffer pH 7.4: 50 mM phosphate buffer pH 7.4 + acetonitrile (1:1)
How it was run: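 Peptide solutions at 1 mg/ml (purity-corrected) in 1:1 acetonitrile with 50 mM HCl pH 1.2, or 50 mM phosphate pH 6.5 or pH 7.4, held 24 hours at 2° C. and 37° C. Supernatants analysed by UHPLC-UV; relative purity loss taken as percent drop in peak-area purity from 0 to 24 hours at 37° C.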

[2] = molecular target: T1, human interleukin-23 receptor (recombinant human IL-23R-Fc chimera) (Homo sapiens, UniProt Q5VWK5); experiment: Human ELISA IL23/IL23R (assay for specific human IL23R antagonists); type: binding; conditions: Table 10; read-out: Human ELISA IL23/IL23R IC50
T1 construct: Fc (IgG Fc fusion)
How it was run: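 Competition format: peptide dilutions compete for IL23R-Fc chimera (0.1 μg/ml final, 60 min, room temperature) binding to immobilized human IL23 coated at […] overnight at 4 °C. Read-out is fluorogenic HRP signal from goat anti-hu-IgG1 detecting captured receptor.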

[3] = system: IL-23 induced STAT3 signaling in HEK-Blue™ IL-23 cells; experiment: IL-23 induced STAT3 signaling in HEK-Blue IL-23 cells (SEAP reporter); type: cell-based; conditions: human IL23 0.25 ng/ml, read-out: pSTAT3
How it was run: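 Secreted SEAP, read at OD 620-655 nm after 45 min QUANTI-Blue development, reports STAT3 activation. Beforehand, cells were exposed to peptide dilutions for 60 min at 37 °C and then to 0.25 ng/ml final human IL-23 overnight, at 10,000 cells/well.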

[4] = Solubility testing of peptides at different pH; type: physicochemical; conditions: target concentration 1 mg/ml, 2 hours agitation
How it was run: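 Four buffers were used: 50 mM HCl pH 1.2 and 50 mM phosphate at pH 6.5, 7.4 and 9.0, each receiving dried-down compound at a 1 mg/mL target. After 2 h gentle shaking and 0.45 μm filtration, UV peak areas were compared with a DMSO standard curve of known concentration, allowing for extinction coefficients.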

Pancreatin = experiment: Protease stability in simulated intestinal fluid (Pancreatin-SIF, FaSSIF); type: in vitro ADME; conditions: 1 μM peptide, 37° C.; for remaining at 1 h, 1 µM: 60 min, read-out: FaSSIF 60 (min), remaining percent of peptide; for remaining at 2 h, 1 µM: 120 min, read-out: FaSSIF 120 (min), remaining percent of peptide; for remaining at 4 h, 1 µM: 240 min, read-out: FaSSIF 240 (min), remaining percent of peptide
How it was run: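 LC-MS/MS peak areas at 0, 60, 120 and 240 min, normalised to time 0 as 100%, give percent remaining. Reactions used 1 μM final peptide at 37° C in pancreatin-SIF (1 mg pancreatin in 10 mL SIF concentrate) and were stopped with ethanol containing 0.1% HCOOH.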

[5] = 50 mM HCl buffer, 50 mM HCl pH 1.2, read-out: Solubility Buffer pH 1.2
[6] = 50 mM phosphate buffer pH 6.5, read-out: Solubility Buffer pH 6.5
[7] = 50 mM phosphate buffer pH 7.4, read-out: Solubility Buffer pH 7.4
[8] = 50 mM phosphate buffer pH 9.0, read-out: Solubility Buffer pH 9.0

| SMILES | Chemical stability (relative purity loss) Buffer pH 1.2 [1] [%] | Chemical stability (relative purity loss) Buffer pH 6.5 [1] [%] | Chemical stability (relative purity loss) Buffer pH 7.4 [1] [%] | IC50 [2] [nM] | solubility at 2 h [4, 5] [µg/mL] | solubility at 2 h [4, 6] [µg/mL] | solubility at 2 h [4, 7] [µg/mL] | solubility at 2 h [4, 8] [µg/mL] | remaining at 1 h, 1 µM (Pancreatin) [%] | remaining at 2 h, 1 µM (Pancreatin) [%] | remaining at 4 h, 1 µM (Pancreatin) [%] | IC50 [3] [nM] |
| --- | --- | --- | --- | --- | --- | --- | --- | --- | --- | --- | --- | --- |
| CC(=O)NCCCC[C@@H]1NC(=O)[C@H](Cc2c[nH]c3ccccc23)NC(=O)[C@@H](N(C)C)CCCCNC(=O)[C@@H]2CSSC[C@H](NC1=O)C(=O)N[C@@H](Cc1ccc(OCCN(C)C)cc1)C(=O)N[C@@H](Cc1ccc3ccccc3c1)C(=O)N[C@@](C)(CCCCN(C)C)C(=O)N[C@H](C(=O)N[C@@H](CC(N)=O)C(=O)N[C@@H](Cc1cccnc1)C(=O)N(C)CC(N)=O)CCC(=O)NCCCCC(=O)N2 [compound 36] ([Ava]C[X2]WK(Ac)CY(Me2NCH2CH2)[2Nal][αMeLys(Me2)]EN[3Pal][Sar]-NH2; disulfide 2-6; lactam N-10) | 2.6 | 1.1 | 0.9 | 0.5 | ≥ 1010 | ≥ 1100 | ≥ 1080 | ≥ 1150 | 97 | 93 | 92 | 13.9 |
| CC(=O)N[C@H]1CCCCNC(=O)[C@@H]2CSSC[C@H](NC(=O)[C@H](CCC(N)=O)NC(=O)[C@H](Cc3c[nH]c4ccccc34)NC1=O)C(=O)N[C@@H](Cc1ccc(OCCN)cc1)C(=O)N[C@@H](Cc1ccc3ccccc3c1)C(=O)N[C@@](C)(CC(C)C)C(=O)N[C@H](C(=O)N[C@@H](C)C(=O)N[C@H](CC(C)C)C(N)=O)CCC(=O)N(C)CCCCC(=O)N2 [compound 44] (Ac-KWQC[AEF][2Nal][αMeL]EA[dL]-NH2; linker 1-4-8 via X3) | 4.1 | 0.1 | 0.2 | 1.16 | < 10 | < 10 | < 10 | < 10 | 64 | 61 | 59 | 42.5 |
| CC(=O)NCCCC[C@@H]1NC(=O)[C@H](Cc2c[nH]c3c(C)cccc23)NC(=O)[C@H]([C@@H](C)O)NC(=O)[C@H](CC(N)=O)NC(=O)[C@@H]2CSSC[C@H](NC1=O)C(=O)N[C@@H](Cc1ccc(OCCN(C)C)cc1)C(=O)N[C@@H](Cc1ccc3ccccc3c1)C(=O)N[C@@](C)(CC(C)C)C(=O)N[C@H](C(=O)N[C@@H](CC(N)=O)C(=O)N[C@@H](Cc1c[nH]cn1)C(=O)N(C)CC(N)=O)CCC(=O)NCCCCC(=O)N2 [compound 47] ([Ava]CNT[Trp(7-Me)]K(Ac)CY(Me2NCH2CH2)[2Nal][αMeL]ENH[Sar]-NH2; disulfide 2-7; lactam N-11) | 2.9 | 0.6 | 0.9 | 0.31 | ≥ 1000 | ≥ 950 | 540 (≈ 284 µM) | 110 (≈ 57.9 µM) | 87 | 85 | 82 | 0.57 |

Further compounds by falling IC50 [2], results first:

| Chemical stability (relative purity loss) Buffer pH 1.2 [1] [%] | Chemical stability (relative purity loss) Buffer pH 6.5 [1] [%] | Chemical stability (relative purity loss) Buffer pH 7.4 [1] [%] | IC50 [2] [nM] | solubility at 2 h [4, 5] [µg/mL] | solubility at 2 h [4, 6] [µg/mL] | solubility at 2 h [4, 7] [µg/mL] | solubility at 2 h [4, 8] [µg/mL] | remaining at 1 h, 1 µM (Pancreatin) [%] | remaining at 2 h, 1 µM (Pancreatin) [%] | remaining at 4 h, 1 µM (Pancreatin) [%] | SMILES | IC50 [3] [nM] |
| --- | --- | --- | --- | --- | --- | --- | --- | --- | --- | --- | --- | --- |
| 7.9 | 0.0 | 0.0 | 0.74 | 10 (≈ 6.24 µM) | 20 (≈ 12.5 µM) | < 10 | < 10 | 92 | 81 | 76 | CC(=O)N[C@H]1CCCCNC(=O)[C@@H]2CSSC[C@H](NC(=O)[C@H](CCC(N)=O)NC(=O)[C@H](Cc3c[nH]c4ccccc34)NC1=O)C(=O)N[C@@H](Cc1ccc(OCCN)cc1)C(=O)N[C@@H](Cc1ccc3ccccc3c1)C(=O)NC(C)(C)C(=O)N[C@H](C(=O)N[C@@H](C)C(=O)N[C@H](CC(C)C)C(N)=O)CCC(=O)N(C)CCCCC(=O)N2 [compound 19] (Ac-KWQC[AEF][2Nal][Aib]EA[dL]-NH2; linker 1-4-8 via X3) | 88.3 |
| 10.5 | 0.0 | 1.0 | 0.48 | 740 (≈ 474 µM) | ≥ 880 | ≥ 870 | 170 (≈ 109 µM) | 89 | 77 | 55 | CC(=O)N[C@H]1CCCCNC(=O)[C@@H]2CSSC[C@H](NC(=O)[C@H](CCC(N)=O)NC(=O)[C@H](Cc3c[nH]c4ccccc34)NC1=O)C(=O)N[C@@H](Cc1ccc(OCCN(C)C)cc1)C(=O)N[C@@H](Cc1ccc3ccccc3c1)C(=O)NC(C)(C)C(=O)N[C@H](C(=O)N[C@@H](C)C(=O)NCC(N)=O)CCC(=O)NCCCCC(=O)N2 [compound 32] (Ac-KWQCY(Me2NCH2CH2)[2Nal][Aib]EAG-NH2; linker 1-4-8 via X1) | 20.5 |
| 23.8 | 0.0 | 8.7 | 0.4 | ≥ 890 | ≥ 870 | 810 (≈ 463 µM) | 270 (≈ 154 µM) | 81 | 82 | 73 | CC(C)C[C@]1(C)NC(=O)[C@H](Cc2ccc3ccccc3c2)NC(=O)[C@H](Cc2ccc(OCCN(C)C)cc2)NC(=O)[C@@H]2CSSC[C@H](NC(=O)CCCCNC(=O)CC[C@@H](C(=O)N[C@@H](CC(N)=O)C(=O)N[C@@H](CC(N)=O)C(N)=O)NC1=O)C(=O)N[C@@H](CC(N)=O)C(=O)N[C@@H]([C@@H](C)O)C(=O)N[C@@H](Cc1c[nH]c3ccccc13)C(=O)N[C@@H](CCC(N)=O)C(=O)N2 [compound 27] ([Ava]CNTWQCY(Me2NCH2CH2)[2Nal][αMeL]ENN-NH2; disulfide 2-7; lactam N-11) | 1.71 |
| 11.3 | 0.0 | 0.0 | 0.26 | ≥ 970 | 980 (≈ 536 µM) | 210 (≈ 115 µM) | 60 (≈ 32.8 µM) | 79 | 68 | 67 | CC(=O)NCCCC[C@@H]1NC(=O)[C@H](Cc2c[nH]c3c(C)cccc23)NC(=O)[C@H]([C@@H](C)O)NC(=O)[C@H](CC(N)=O)NC(=O)[C@@H]2CSSC[C@H](NC1=O)C(=O)N[C@@H](Cc1ccc(OCCN(C)C)cc1)C(=O)N[C@@H](Cc1ccc3ccccc3c1)C(=O)N[C@@](C)(CC(C)C)C(=O)N[C@H](C(=O)N[C@@H](CC(N)=O)C(=O)N[C@@H](Cc1c[nH]cn1)C(N)=O)CCCCNC(=O)CCC(=O)N2 [compound 23] (CNT[Trp(7-Me)]K(Ac)CY(Me2NCH2CH2)[2Nal][αMeL]KNH-NH2; disulfide 1-6; linker N-10 via Suc) | 3.32 |
| 14.3 | 2.9 | 5.1 | 0.2 | ≥ 970 | ≥ 960 | ≥ 910 | 670 (≈ 421 µM) | 81 | 65 | 43 | CC(=O)N[C@H]1CCCCNC(=O)[C@@H]2CSSC[C@H](NC(=O)[C@H](CCC(N)=O)NC(=O)[C@H](Cc3c[nH]c4ccccc34)NC1=O)C(=O)N[C@@H](Cc1ccc(OCCN)cc1)C(=O)N[C@@H](Cc1ccc3ccccc3c1)C(=O)NC(C)(C)C(=O)N[C@H](C(=O)N[C@@H](CC(N)=O)C(=O)NCC(N)=O)CCC(=O)N(C)CCCCC(=O)N2 [compound 15] (Ac-KWQC[AEF][2Nal][Aib]ENG-NH2; linker 1-4-8 via X3) | 29.2 |
